We go through ten compounds from paper PMC6072100, “Exploring the links between peptoid antibacterial activity and toxicity” (MedChemComm, 2017).

One may read the CC50 as the concentration that lowers cell viability or growth by half. Low readings indicate greater toxicity to the cells, high ones lower toxicity to the cells.

Series [1] in a line: Cytotoxicity assay with HepG2 (alamarBlue). The note with it: human, HepG2 cells, ED50 HepG2. It counts as cell-based, human. How it is done: (§1) The activity of our peptoid library was assessed against both bacterial and mammalian cells to gain a broader understanding of the factors that lead to effective and selective antimicrobial peptoids. We screened for broad-spectrum antibacterial activity against Gram-negative (Escherichia coli and Pseudomonas aeruginosa) and Gram-positive (Staphylococcus aureus and S. epidermidis) bacteria. The toxicity of the library was also assessed against two mammalian cell lines; HaCaT spontaneously transformed aneuploid keratinocytes were employed to model toxicity against human skin cells and HepG2, a cell line derived from a human liver carcinoma, were used as a study on polarised human hepatocytes. Detailed methods for these assays can be found in the ESI. ^‡ […]
(§2) Please note – ED50, the median effective dose, was defined as the dose that kills 50% of cells.
(§3) Cytotoxicity analyses were performed in 96-well plates (Costar, Fisher Scientific) using alamarBlue® (Invitrogen) for cell viability detection using a modified protocol as described previously. HepG2 or HaCaT cells were subcultured at 37 °C, 5% CO2 in DMEM high glucose supplemented with heat-inactivated foetal bovine sera (FBS, 10%; Biosera Ltd) and penicillin/streptomycin (P/S, 1%). Cells were counted using a Neubauer Improved Haemocytometer. HepG2 cells were seeded 1 day prior to treatment in 96 well plates at a concentration of 2 × 10^5 cells per mL in 100 μL of medium (2 × 10^4 cells per well). Then cells were pre-incubated with the compounds in triplicate in a dilution series in triplicate from 2–100 μM (5 mM stock solutions in DMSO diluted from 100 μM to 3 μM; untreated cells with DMSO as a negative control) in 50 μl of the media for 1 hour. Afterwards, 40 μL were removed from each well before the addition of 90 μL of the media, followed by incubation for 24 hours at 37 °C, 5% CO2. Then, 10 μL of alamarBlue® (Invitrogen) was added to each well before a 2 hour incubation prior to assessing cell viability using a fluorescent plate reader (Biotek; Ex 560 nm/Em 600 nm). All data were measured in triplicate on a minimum of two occasions to ensure a robust data set was collected. The ED50 values were calculated from the dose response results achieved from the serial dilutions.
Cytotoxicity assay with HepG2
Cytotoxicity analyses were performed in 96-well plates (Costar, Fisher Scientific) using alamarBlue® (Invitrogen) for cell viability detection using a modified protocol as previously described. The HepG2 cells were grown at 37 °C, 5% CO2 in DMEM high glucose supplemented with heat-inactivated foetal bovine sera (FBS, 10%; Biosera Ltd) and penicillin/streptomycin (P/S, 1%). Cells were counted using a Neubauer Improved Haemocytometer. HepG2 cells were seeded 1 day prior to treatment in 96 well plates at a concentration of 2x10^5 cells/mL in 100 µL of medium (2x10^4 cells/well). Then cells were pre-incubated with the compounds in triplicate (5 mM stock solutions in DMSO diluted from 100 µM to 3 µM; untreated cells with DMSO as a negative control) in 50 µl of the media for 1 hour.
Afterwards, 40 µL were removed from each well before the addition of 90 µL of the media, followed by incubation for 24 hours at 37 °C, 5% CO2. Then, 10 µL of alamarBlue® (Invitrogen) was added to each well before a 2 hour incubation prior to assessing cell viability using a fluorescent plate reader (Biotek; Ex 560 nm / Em 600 nm). All data was measured in triplicate on a minimum of two occasions to ensure a robust data set was collected. The ED50 values were calculated from the dose response results achieved from the serial dilutions. […]
5% CO2 in DMEM high glucose supplemented with heat-inactivated foetal bovine sera (FBS, 10%; Biosera Ltd) and penicillin/streptomycin (P/S, 1%). Cells were counted using a Neubauer […]
Empty wells were filled with 100 µL PBS. After 24 hours, cells were incubated with the compounds in a dilution series in triplicate from 2 – 100 µM (5 mM stock solutions in DMSO […]

A short description of series [2]: Skin cell toxicity assay with HaCaT (alamarBlue). Format: cell-based, human. The note with it: human, HaCaT cells (keratinocytes), ED50 HaCaT. How it is done:
as §1, §2
as §3, with “dilutions. […]” for “dilutions.”
Cells were counted using a Neubauer Improved
Haemocytometer. […]
µM to 3 µM; untreated cells with DMSO as a negative control) in 50 µl of the media for 1 hour.
Afterwards, 40 µL were removed from each well before the addition of 90 µL of the media, followed by incubation for 24 hours at 37 °C, 5% CO2. Then, 10 µL of alamarBlue® (Invitrogen) was added to each well before a 2 hour incubation prior to assessing cell viability using a fluorescent plate reader (Biotek; Ex 560 nm / Em 600 nm). All data was measured in triplicate on a minimum of two occasions to ensure a robust data set was collected. The ED50 values were calculated from the dose response results achieved from the serial dilutions.
Skin Cell Toxicity assay with HaCaT […]
alamarBlue® (Invitrogen) for cell viability detection. HaCaT cells were subcultured at 37 °C, 5% CO2 in DMEM high glucose supplemented with heat-inactivated foetal bovine sera (FBS, 10%; Biosera Ltd) and penicillin/streptomycin (P/S, 1%). Cells were counted using a Neubauer Improved Haemocytometer. HaCaT cells were seeded in the plates 24 hours prior to treatment in 96 well plates at a concentration of 2x10^5 cells/mL in 100 µL of medium (2x10^4 cells/well).
Empty wells were filled with 100 µL PBS. After 24 hours, cells were incubated with the compounds in a dilution series in triplicate from 2 – 100 µM (5 mM stock solutions in DMSO diluted from 100 µM to 3 µM; Amphotericin B was used as a positive control and untreated cells with DMSO as a negative control) in 50 µL of the media for 1 hour. Afterwards, 40 µl was removed from each well, 90 µL of medium was added to each well and the cells incubated for 24 hours at 37 °C, 5% CO2. 10 µL of alamarBlue® (Invitrogen) was added to each well before […]
A general note: The colour change of resazurin is a common sign of viable cells or microbes.

SMILES strings stand for the structures. Square brackets hold non-standard residues; d marks the D form. Peptide text beside a SMILES is read from it. Gly(N-(CH2)6NH2) = NCCCCCCNCC(=O)O; Gly(N-2-aminoethyl) = NCCNCC(=O)O; Nspe = C[C@H](NCC(=O)O)c1ccccc1; Nphe = O=C(O)CNCc1ccccc1; Nlys = NCCCCNCC(=O)O

With `NCCCCCCNCC(=O)N(CC(=O)N(CC(=O)N(CCCCCCN)CC(=O)N(CC(=O)N(CC(=O)N(CCCCCCN)CC(=O)N(CC(=O)N(CC(=O)N(CCCCCCN)CC(=O)N(CC(=O)N(CC(N)=O)Cc1ccccc1)Cc1ccccc1)Cc1ccccc1)Cc1ccccc1)Cc1ccccc1)Cc1ccccc1)Cc1ccccc1)Cc1ccccc1` [Peptoid 1, (NahNpheNphe)4] (H-[Gly(N-(CH2)6NH2)][Nphe][Nphe][Gly(N-(CH2)6NH2)][Nphe][Nphe][Gly(N-(CH2)6NH2)][Nphe][Nphe][Gly(N-(CH2)6NH2)][Nphe][Nphe]-NH2), the CC50 at 24 h in series [1] and in series [2] was 100 µM in each case.

For the compound `NCCCCCCNCC(=O)N(CC(=O)N(CC(=O)N(CCCCCCN)CC(=O)N(CC(=O)N(CC(=O)N(CCCCCCN)CC(=O)N(CC(=O)N(CC(N)=O)Cc1ccccc1)Cc1ccccc1)Cc1ccccc1)Cc1ccccc1)Cc1ccccc1)Cc1ccccc1` [Peptoid 2, (NahNpheNphe)3] (H-[Gly(N-(CH2)6NH2)][Nphe][Nphe][Gly(N-(CH2)6NH2)][Nphe][Nphe][Gly(N-(CH2)6NH2)][Nphe][Nphe]-NH2), the CC50 at 24 h in series [1] and in series [2] was 100 µM in each case.

For the compound `NCCCCCCNCC(=O)N(CC(=O)N(CC(=O)N(CCCCCCN)CC(=O)N(CC(=O)N(CC(N)=O)Cc1ccccc1)Cc1ccccc1)Cc1ccccc1)Cc1ccccc1` [Peptoid 3, (NahNpheNphe)2] (H-[Gly(N-(CH2)6NH2)][Nphe][Nphe][Gly(N-(CH2)6NH2)][Nphe][Nphe]-NH2), the CC50 at 24 h in series [1] and in series [2] was 100 µM throughout.

For the compound `NCCCCNCC(=O)N(CC(=O)N(CC(=O)N(CCCCN)CC(=O)N(CC(=O)N(CC(=O)N(CCCCN)CC(=O)N(CC(=O)N(CC(=O)N(CCCCN)CC(=O)N(CC(=O)N(CC(N)=O)Cc1ccccc1)Cc1ccccc1)Cc1ccccc1)Cc1ccccc1)Cc1ccccc1)Cc1ccccc1)Cc1ccccc1)Cc1ccccc1` [Peptoid 4, (NLysNpheNphe)4] (H-[Nlys][Nphe][Nphe][Nlys][Nphe][Nphe][Nlys][Nphe][Nphe][Nlys][Nphe][Nphe]-NH2), the CC50 at 24 h in series [1] is 100 µM; in series [2] it was 36 µM.

Regarding `NCCCCNCC(=O)N(CC(=O)N(CC(=O)N(CCCCN)CC(=O)N(CC(=O)N(CC(=O)N(CCCCN)CC(=O)N(CC(=O)N(CC(N)=O)Cc1ccccc1)Cc1ccccc1)Cc1ccccc1)Cc1ccccc1)Cc1ccccc1)Cc1ccccc1` [Peptoid 5, (NLysNpheNphe)3], the CC50 at 24 h in series [1] and in series [2] was 100 µM throughout.

`NCCCCNCC(=O)N(CC(=O)N(CC(=O)N(CCCCN)CC(=O)N(CC(=O)N(CC(N)=O)Cc1ccccc1)Cc1ccccc1)Cc1ccccc1)Cc1ccccc1` [Peptoid 6, (NLysNpheNphe)2] (H-[Nlys][Nphe][Nphe][Nlys][Nphe][Nphe]-NH2): the CC50 at 24 h in series [1] and in series [2] was 100 µM throughout.

`NCCNCC(=O)N(CC(=O)N(CC(=O)N(CCN)CC(=O)N(CC(=O)N(CC(=O)N(CCN)CC(=O)N(CC(=O)N(CC(=O)N(CCN)CC(=O)N(CC(=O)N(CC(N)=O)Cc1ccccc1)Cc1ccccc1)Cc1ccccc1)Cc1ccccc1)Cc1ccccc1)Cc1ccccc1)Cc1ccccc1)Cc1ccccc1` [Peptoid 7, (NaeNpheNphe)4] (H-[Gly(N-2-aminoethyl)][Nphe][Nphe][Gly(N-2-aminoethyl)][Nphe][Nphe][Gly(N-2-aminoethyl)][Nphe][Nphe][Gly(N-2-aminoethyl)][Nphe][Nphe]-NH2): the half-maximal cytotoxic concentration (CC50) at 24 h in series [1] and in series [2] was 100 µM in each case.

Regarding `NCCNCC(=O)N(CC(=O)N(CC(=O)N(CCN)CC(=O)N(CC(=O)N(CC(=O)N(CCN)CC(=O)N(CC(=O)N(CC(N)=O)Cc1ccccc1)Cc1ccccc1)Cc1ccccc1)Cc1ccccc1)Cc1ccccc1)Cc1ccccc1` [Peptoid 8, (NaeNpheNphe)3] (H-[Gly(N-2-aminoethyl)][Nphe][Nphe][Gly(N-2-aminoethyl)][Nphe][Nphe][Gly(N-2-aminoethyl)][Nphe][Nphe]-NH2), the CC50 at 24 h in series [1] and in series [2] was 100 µM throughout.

As for `NCCNCC(=O)N(CC(=O)N(CC(=O)N(CCN)CC(=O)N(CC(=O)N(CC(N)=O)Cc1ccccc1)Cc1ccccc1)Cc1ccccc1)Cc1ccccc1` [Peptoid 9, (NaeNpheNphe)2] (H-[Gly(N-2-aminoethyl)][Nphe][Nphe][Gly(N-2-aminoethyl)][Nphe][Nphe]-NH2), the CC50 at 24 h in series [1] and in series [2] was 100 µM each time.

Take `C[C@@H](c1ccccc1)N(CC(N)=O)C(=O)CN(C(=O)CN(CCCCCCN)C(=O)CN(C(=O)CN(C(=O)CN(CCCCCCN)C(=O)CN(C(=O)CN(C(=O)CN(CCCCCCN)C(=O)CN(C(=O)CN(C(=O)CNCCCCCCN)[C@@H](C)c1ccccc1)[C@@H](C)c1ccccc1)[C@@H](C)c1ccccc1)[C@@H](C)c1ccccc1)[C@@H](C)c1ccccc1)[C@@H](C)c1ccccc1)[C@@H](C)c1ccccc1` [Peptoid 10, (NahNspeNspe)4] (H-[Gly(N-(CH2)6NH2)][Nspe][Nspe][Gly(N-(CH2)6NH2)][Nspe][Nspe][Gly(N-(CH2)6NH2)][Nspe][Nspe][Gly(N-(CH2)6NH2)][Nspe][Nspe]-NH2; N-terminus assumed): the CC50 at 24 h in series [1] was 41 µM; in series [2], 23 µM.
